# Laboratory results taken from patent publication US20190142881A1, “BACTERIOPHAGE COMPOSITIONS AND USES THEREOF” (priority 2016, published 2019).
# Like-named read-outs stand apart in the source and are kept apart here.
# Legend:
# [1] = tested on: environmental and clinical P. aeruginosa strains; experiment: MIC trade-off assay, phage-resistant mutants of environmental and clinical strains; format: cell-based, Pseudomonas aeruginosa; conditions: majority of outcomes showing statistical significance
# [2] = tested on: P. aeruginosa isolated from the patient, susceptible to phage OMKO1; experiment: MIC by eTest strip, patient isolate before phage exposure; format: cell-based, Pseudomonas aeruginosa
# Protocol: (§1) Bacterial strains were grown overnight at 37° C. as described above. A 200 μL sample of the culture was then spread onto an LB agar plate, and allowed to dry for 10 minutes, followed by application of an eTestStrip (BioMerieux) for a test antibiotic. […] Each strain was tested in triplicate for each antibiotic.
# (§2) P. aeruginosa isolated from the patient was subjected to Deep Sequencing (Next Generation Sequencing) on the Illumina HiSeq 2000 platform to confirm species identity and presence of genes known to be associated with efflux-pump mechanisms for resistance to antibiotics. Furthermore, a trade-off between phage OMKO1 sensitivity and antibiotic susceptibility was confirmed as per methods disclosed elsewhere herein (FIG. 5). Phage OMKO1 was sequenced also on the HiSeq 2000 platform and found to be in the PhiKZ-like virus genus.
# [3] = tested on: P. aeruginosa isolated from the patient, resistant to phage OMKO1; experiment: MIC by eTest strip, patient isolate after evolved resistance to phage OMKO1; format: cell-based, Pseudomonas aeruginosa
# Protocol: (§3) Phage OMKO1 was amplified on P. aeruginosa in liquid culture in conditions identical to the Serial passage assays. Following 12 hours of amplification, 100 μl of culture was plated on LB agar and incubated for 12 hours. Individual colony-forming units (CFUs) were then collected, and verified to be phage resistant by classic ‘spot tests’ (i.e., 10^7 PFU of phage OMKO1 was pipetted onto a lawn of each bacterial isolate to test whether the phage was capable of visibly clearing the lawn [indicating bacterial sensitivity to phage] versus incapable of clearing the lawn [indicating bacterial resistance to phage]).
# as §1, §2
# [4] = tested on: 72-hour-old P. aeruginosa biofilms; experiment: Biofilm elimination assays on prosthetic materials; conditions: single agent (antibiotics at 2×MIC)
# [5] = tested on: strain ΔmexR (derived from PA01); experiment: Minimum inhibitory concentration (eTest strip) on control knockout ΔmexR; format: cell-based; conditions: Pseudomonas aeruginosa, average ± SD, phage-sensitive, over-expresses Mex systems
# Protocol: as §1
# As a control for transposon insertion, strain ΔmexR, which was also derived from PA01, was examined. mexR, the repressor of MexAB-OprM and MexXY-OprM operons should not negatively alter phage sensitivity.
# strain PA01 ΔoprM = experiment: Minimum inhibitory concentration (eTest strip) on knockout PA01 ΔoprM; format: cell-based; conditions: Pseudomonas aeruginosa
# Protocol: as §1
# (§4) The effects of phage resistance on sensitivity to the four drugs was tested in replicated assays with PA01 and PA14, as well as with three environmental strains (PAN, 1607, 1845) and three clinical isolates (PAPS, PASk, PADFU). In these assays, the phage-OMKO1 resistant strain was either a knockout mutant (ΔoprM derived from PA01), or an independently derived spontaneous mutant of the associated parental strain.
# [6] = tested on: environmental isolates (PAN, 1607, 1845); experiment: MIC trade-off assay, phage-resistant mutants of environmental isolates; format: cell-based, Pseudomonas aeruginosa; conditions: phage-resistant mutant versus parental strain
# Protocol: as §3, §1, §4
# [7] = Pseudomonas aeruginosa, read-out: MIC
# [8] = Dacron sections, 24 h treatment, regrowth OD600
Compound,change in drug sensitivity on phage resistance [1],"MIC [2, 7]",MIC ([3]; Pseudomonas aeruginosa),"elimination of 72-hour biofilms [4, 8]",elimination of 72-hour biofilms ([4]; Gore-Tex sections),elimination of 72-hour biofilms ([4]; felt pieces),elimination of 72-hour biofilms ([4]; polypropylene suture),MIC [5],MIC (strain PA01 ΔoprM),change in antibiotic sensitivity on resistance to phage OMKO1 [6],MIC [2],"MIC ([3]; eTest strip, after evolved resistance to phage OMKO1)"
"CC(C)(O/N=C(\C(=O)N[C@@H]1C(=O)N2C(C(=O)[O-])=C(C[n+]3ccccc3)CS[C@H]12)c1csc(N)n1)C(=O)O [CAZ, Ceftazidime]",greater drug sensitivity,1.67 µg/mL,0.35 µg/mL,Neither ciprofloxacin nor ceftazidime at 2×MIC was sufficient to eliminate 72 hour biofilms,unable to remove 72-hour biofilms,neither antibiotic alone significantly removed 72-hour biofilms,not by antibiotics at 2×MIC,1.33 ± 0.035 µg/mL,0.21 ± 0.144 µg/mL,–,–,–
"O=C(O)c1cn(C2CC2)c2cc(N3CCNCC3)c(F)cc2c1=O [CIP, Ciprofloxacin]",–,1.17 µg/mL,0.014 µg/mL,Neither ciprofloxacin nor ceftazidime at 2×MIC was sufficient to eliminate 72 hour biofilms,unable to remove 72-hour biofilms,neither antibiotic alone significantly removed 72-hour biofilms,not by antibiotics at 2×MIC,32 µg/mL,0.016 µg/mL,–,–,–
"CC[C@H]1OC(=O)[C@H](C)[C@@H](O[C@H]2C[C@@](C)(OC)[C@@H](O)[C@H](C)O2)[C@H](C)[C@@H](O[C@@H]2O[C@H](C)C[C@H](N(C)C)[C@H]2O)[C@](C)(O)C[C@@H](C)C(=O)[C@H](C)[C@@H](O)[C@]1(C)O [EM, Erythromycin]",–,–,–,–,–,–,–,256 ± 0.577 µg/mL,4.67 µg/mL,increased sensitivity,–,–
"CN(C)[C@@H]1C(O)=C(C(N)=O)C(=O)[C@@]2(O)C(O)=C3C(=O)c4c(O)cccc4[C@@](C)(O)[C@H]3C[C@@H]12 [TET, Tetracycline]",–,–,–,–,–,–,–,256 µg/mL,2 µg/mL,–,–,–
NC[C@H]1O[C@H](O[C@H]2[C@H](O)[C@@H](O[C@H]3O[C@H](CO)[C@@H](O)[C@H](N)[C@H]3O)[C@H](N)C[C@@H]2N)[C@H](N)C[C@@H]1O [tobramycin],–,11.3 µg/mL,3.67 µg/mL,–,–,–,–,–,–,–,–,–
gentamicin,–,–,–,–,–,–,–,–,–,–,3.7 µg/mL,0.833 µg/mL
